Data published in US6511978B1, “Pyrrole derivatives useful for farnesyl transferase inhibitors and their preparations” (LG Life Sciences, Ltd., priority 1999, dated 2003).

Legend:
Ras farnesyl transferase [1] = target: T1, Ras farnesyl transferase (Homo sapiens, UniProt P49354+P49356); assay: Ras farnesyl transferase enzyme inhibition, H-Ras substrate; format: biochemical; conditions: H-Ras substrate protein; recombinant farnesyl transferase; 30 minutes at 37° C.
T1 construct: made in house

Ras farnesyl transferase [2] = target: T1, Ras farnesyl transferase; assay: Ras farnesyl transferase enzyme inhibition, K-Ras substrate (H-Ras fused with polybasic lysine domain of K-Ras); format: biochemical; conditions: K-Ras substrate (fused protein of H-Ras with polybasic lysine domain of K-Ras); recombinant farnesyl transferase
Ras farnesyl transferase [3] = target: T2, Ras farnesyl transferase (Rattus norvegicus, UniProt Q02293+Q04631); assay: In vivo (intracellular) Ras farnesylation inhibition in Rat2 cell line expressing C-Harvey-Ras; format: cell-based; conditions: Rat2 cells expressing C-Harvey-Ras; concentration inhibiting 50% of farnesyl binding; read-out: H-Ras CIC50
T2 construct: endogenous in cells; host or cells: Rat2 fibroblasts transformed with C-Harvey-Ras or with the H-Ras/K-Ras polybasic-domain fusion
Summary of the method: (§1)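 Transformed Rat2 fibroblasts treated with compound (1% DMSO) for 4 h, then labelled with [^35S]methionine 150 μCi/ml for 20 h. Ras immunoprecipitated with Y13-259 and resolved on 13.5% SDS-PAGE autoradiography; CIC50 is concentration inhibiting 50% of farnesylated Ras band.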

Ras farnesyl transferase [4] = target: T2, Ras farnesyl transferase; assay: In vivo (intracellular) Ras farnesylation inhibition in Rat2 cell line transformed with H-Ras fused with polybasic lysine domain of K-Ras; format: cell-based; conditions: Rat2 cells transformed with H-Ras/K-Ras polybasic domain fused protein; concentration inhibiting 50% of farnesyl binding; read-out: K-Ras CIC50
Summary of the method: as §1

| SMILES | IC50 (Ras farnesyl transferase [1]) | IC50 (Ras farnesyl transferase [2]) | IC50 (Ras farnesyl transferase [3]) | IC50 (Ras farnesyl transferase [4]) |
| --- | --- | --- | --- | --- |
| O=[N+]([O-])c1cn(Cc2cncn2Cc2ccc3ccccc3c2)cc1-c1cccc2ccccc12 [Example 49, 1-[1-(naphthalen-2-ylmethyl)-1H-imidazol-5-ylmethyl]-4-(naphthalen-1-yl)-3-nitro-1H-pyrrole] | < 30 nM | > 30 nM | > 50 nM | > 10 µM |
| Nc1cn(Cc2cncn2Cc2ccc(Cl)cc2)cc1-c1cccc2ccccc12 [Example 50, 3-amino-1-[1-(4-chlorobenzyl)-1H-imidazol-5-ylmethyl]-4-(naphthalen-1-yl)-1H-pyrrole] | > 30 nM | > 30 nM | > 50 nM | > 10 µM |
| Cc1ncn(Cc2ccc3c(c2)OCO3)c1Cn1cc(C(=O)N2CCN(C)CC2)c(-c2cc(Br)cc3ccccc23)c1 [Example 51, 4-(3-bromonaphthalen-1-yl)-1-[4-methyl-1-(3,4-methylenedioxybenzyl)-1H-imidazol-5-ylmethyl]-3-(4-methylpiperazin-1-yl)carbonyl-1H-pyrrole] | < 10 nM | < 30 nM | < 10 nM | > 10 µM |
| Cc1ncn(Cc2ccc3c(c2)OCO3)c1Cn1cc(C(=O)N2CCN(C)CC2)c(-c2cc(Cl)cc3ccccc23)c1 [Example 52, 4-(3-chloronaphthalen-1-yl)-1-[4-methyl-1-(3,4-methylenedioxybenzyl)-1H-imidazol-5-ylmethyl]-3-(4-methylpiperazin-1-yl)carbonyl-1H-pyrrole] | < 10 nM | < 30 nM | < 10 nM | > 10 µM |
| Cc1ncn(Cc2ccc3ccccc3c2)c1Cn1cc(C(=O)N2CCN(C)CC2)c(-c2cc(Br)cc3ccccc23)c1 [Example 53, 4-(3-bromonaphthalen-1-yl)-1-[4-methyl-1-(naphthalen-2-yl)methyl-1H-imidazol-5-ylmethyl]-3-(4-methylpiperazin-1-yl)carbonyl-1H-pyrrole] | < 10 nM | < 30 nM | < 10 nM | > 10 µM |
| Cc1ncn(Cc2ccc3ccccc3c2)c1Cn1cc(C(=O)N2CCN(C)CC2)c(-c2cc(Cl)cc3ccccc23)c1 [Example 54, 4-(3-chloronaphthalen-1-yl)-1-[4-methyl-1-(naphthalen-2-yl)methyl-1H-imidazol-5-ylmethyl]-3-(4-methylpiperazin-1-yl)carbonyl-1H-pyrrole] | < 10 nM | < 30 nM | < 10 nM | > 10 µM |
| Cc1ncn(Cc2ccc3ccccc3c2)c1Cn1cc(C(=O)N2CCN(C)CC2)c(-c2cccc3ccccc23)c1 [Example 55, 1-[4-methyl-1-(naphthalen-2-yl)methyl-1H-imidazol-5-ylmethyl]-3-(4-methylpiperazin-1-yl)carbonyl-4-(naphthalen-1-yl)-1H-pyrrole] | < 10 nM | < 30 nM | < 10 nM | > 10 µM |
